{"source": "patent US9283234B2", "about": "“Compositions and methods for suppressing endometrial proliferation” (REPROS THERAPEUTICS INC., priority 2006, dated 2016)", "key": {"[1]": {"experiment": "Six month endometriosis study: estrogen and biomarkers of bone resorption", "type": "in vivo, pre-menopausal adult women", "protocol": "Thirty-nine pre-menopausal adult women diagnosed with endometriosis were the subject of a six month study of Proellex™ (CDB-4124) in the treatment of endometriosis. The study included three dose levels of CDB-4124 as well as a positive control arm. The positive control was LUCRIN, a GnRH agonist, commonly used for the treatment of endometriosis (also known as LUPRON. CDB-4124 was administered in a double blinded fashion as a daily oral capsule at dosages of 12.5 mg/day (n=2), 25 mg/day (n=3) and 50 mg/day (n=3). Another group (n=4) were injected with a slow release formulation of LUCRIN once per month as a positive control."}, "[2]": {"experiment": "Measuring serum cortisol in rats", "type": "in vivo"}, "[3]": {"experiment": "Measuring serum corticosterone in rats"}, "[4]": {"experiment": "Six month endometriosis study: side effects and bleeding", "type": "in vivo, pre-menopausal adult women", "settings": "for non-menstrual spotting and bleeding with excessive endometrial thickening, D&C performed: treatment phase", "procedure": "Although this was a small study and no definitive conclusions can be made from the safety data, there was no single signal of safety observed.\nA similar event was not seen at the 50 mg dose during the treatment phase. Greater than normal bleeding occurred in two patients in the 50 mg CDB-4124 group after treatment was stopped and a D&C was performed in one and the other successfully managed conservatively."}, "[5]": {"test_system": "endometrium", "experiment": "Six month endometriosis study: endometrial thickness (ultrasound) / endometrial proliferation", "type": "in vivo, pre-menopausal adult women", "description": "Comparisons were made to both baseline and visit one ultrasound measurements of endometrial thickness. […]"}, "[6]": {"test_system": "pain associated with endometriosis", "experiment": "Six month endometriosis study: pain diaries and symptom surveys", "type": "in vivo, pre-menopausal adult women", "set-up": "key to score for intensity of pain on a bad day: 0-10 scale; 0 = no pain, 10 = extreme pain", "procedure": "Pain reduction also occurred more rapidly than with the active control, LUCRIN. The response of pain to treatment in this study was analyzed in two ways. Patients in the study maintained daily pain diaries to record the severity and frequency of pain. In addition, at each office visit, patients filled out endometriosis symptom surveys that included a questionnaire that evaluated intensity of pain on a bad day on a scale of 0-10 with 10 being the greatest intensity. […] There appeared to be a dose dependent effect on pain reduction. […] This decrease in duration of pain was statistically better (p=0.0012) than the 117.8 (74%; standard deviation 51.4 days) pain free days achieved with LUCRIN. […] Patients on CDB-4124 12.5 mg and 25 mg doses had 115.9 (66%; standard deviation 69.2 days) and 133.6 (75%; standard deviation 27.4 days) pain free days, respectively. […] The 25 mg and 12.5 mg doses of CDB-4124 were not statistically different from LUCRIN. […] The intensity of pain was asked by the question: “On a scale of 1-10, with 0 being no pain and 10 being extreme pain, how intense was your pain on a bad day?” The mean scores for intensity of pain at baseline were 6.3 for the CDB-4124 groups and 6.1 for the LUCRIN group. […] At month three all four active treatment groups had statistically significant reduction in pain compared with baseline, with the following scores: 3.7 (p=0.03) for 12.5 mg CDB-4124, 3.2 (p=0.03) for 25 mg CDB-4124, 1.6 (p=0.015) for 50 mg CDB-4124 and 1.5 (p=0.016) for LUCRIN. These dose related reductions continued until month six when the values for pain intensity were 2.0 (p=0.008), 2.8 (p=0.023), 0.6 (p=0.004) and 0.7 (p=0.016), respectively. Two months after stopping treatment pain returned and was of similar intensity in all four treatment groups."}, "[7]": {"experiment": "estrogenic, androgenic, anti-estrogenic and anti-androgenic activities", "description": "These methods include receptor binding and in vivo bioassays such as anti-McGinty, anti-Clauberg, glucocorticoid, estrogenic, androgenic, anti-glucocorticoid (AG), anti-estrogen, and anti-androgen activities as well as post-coital and anti-ovulatory activities where in the leading compounds of the instant invention are used as a reference."}, "[8]": {"settings": "Attardi et al., 2002; cited from earlier work"}}, "data": [{"smiles": "COCC(=O)[C@@]1(OC(C)=O)CC[C@H]2[C@@H]3CCC4=CC(=O)CCC4=C3[C@@H](c3ccc(N(C)C)cc3)C[C@@]21C", "note": "[CDB-4124, 21-methoxy-17α-acetoxy-11β-(4 N,N-dimethylaminophenyl)-19-norpregna-4,9-diene-3,20-dione]", "values": [{"measurement": "estrogen concentration (mean)", "setting": "[1]; all doses of CDB-4124", "result": "> 40", "unit": "pg/mL"}, {"measurement": "biomarkers of bone resorption compared with baseline", "setting": "[1]; month three (LUCRIN, p=0.023), three and six months (any dose arm of CDB-4124)", "result": "no significant changes in biomarkers of bone resorption"}, {"measurement": "serum cortisol versus control group", "setting": "[2]; 10 mg/kg, 21 days of chronic dosing, FIG. 1", "result": "significantly higher levels of serum cortisol"}, {"measurement": "dose-dependent effect on serum cortisol", "setting": "[2]; increasing doses, FIG. 2", "result": "increased cortisol"}, {"measurement": "effect on the primary glucocorticoid of the rat (corticosterone)", "setting": "[3]", "result": "no strong effect"}, {"measurement": "differences in serum corticosterone between treatment groups", "setting": "[3]; progesterone, CDB-4124 and RU-486 groups compared", "result": "No differences in serum corticosterone"}, {"measurement": "non-menstrual spotting and bleeding with excessive endometrial thickening, D&C performed", "setting": "[4]; 12.5 mg and 25 mg groups", "result": "two cases"}, {"measurement": "non-menstrual spotting and bleeding with excessive endometrial thickening, D&C performed", "setting": "[4]; 50 mg dose", "result": "not seen"}, {"measurement": "greater than normal bleeding after treatment was stopped", "setting": "[4]; 50 mg group", "result": "two patients"}, {"measurement": "women exhibiting thickened endometrium after three months", "setting": "[5]; 12.5 mg (n=4)", "result": "two women"}, {"measurement": "women exhibiting thickened endometrium after three months", "setting": "[5]; 25 mg (n=4)", "result": "One person"}, {"measurement": "women exhibiting thickened endometrium after three months", "setting": "[5]; 50 mg (n=3)", "result": "none of the women"}, {"measurement": "endometrial proliferation in adult females", "setting": "[5]; high dosage 50 mg/day", "result": "suppresses endometrial proliferation"}, {"measurement": "endometrial proliferation in adult females", "setting": "[5]; lower dosages 25 mg/day and 12.5 mg/day", "result": "does not suppress endometrial proliferation"}, {"measurement": "days of pain over the first three months versus highest dose of CDB-4124 or LUCRIN", "setting": "[6]; 25 mg and 12.5 mg daily oral", "result": "more days of pain"}, {"measurement": "relief from pain (intensity) by the first month", "setting": "[6]; 25 mg and 50 mg groups", "result": "Statistically significant relief from pain"}, {"measurement": "days of pain at the end of the first month compared with baseline", "setting": "[6]; 50 mg, p=0.031", "result": "statistically significant reduction in days of pain"}, {"measurement": "distress related to pain over the six month exposure", "setting": "[6]; all doses, on average", "result": "reduced distress related to pain"}, {"measurement": "mean score for intensity of pain on a bad day", "setting": "[6]; baseline, scale 0-10", "result": 6.3}, {"measurement": "score for intensity of pain on a bad day", "setting": "[6]; month six, 12.5 mg", "result": 2.0}, {"measurement": "score for intensity of pain on a bad day", "setting": "[6]; month six, 25 mg", "result": 2.8}, {"measurement": "score for intensity of pain on a bad day", "setting": "[6]; month six, 50 mg", "result": 0.6}, {"measurement": "score for intensity of pain on a bad day", "setting": "[6]; month three, 12.5 mg", "result": 3.7}, {"measurement": "score for intensity of pain on a bad day", "setting": "[6]; month three, 25 mg", "result": 3.2}, {"measurement": "score for intensity of pain on a bad day", "setting": "[6]; month three, 50 mg", "result": 1.6}, {"measurement": "estrogenic, androgenic, anti-estrogenic, and anti-androgenic activities", "setting": "[7]", "result": "lack"}]}, {"smiles": "CNc1ccc([C@H]2C[C@@]3(C)[C@@H](CC[C@]3(OC(C)=O)C(=O)COC)[C@@H]3CCC4=CC(=O)CCC4=C32)cc1", "note": "[CDB-4453, 21-methoxy-17α-acetoxy-11β-(4-N-methylaminophenyl)-19-norpregna-4,9-diene-3,20-dione]", "values": [{"measurement": "anti-glucocorticoid activity relative to parent CDB-4124", "setting": "[8]", "result": "even lower anti-glucocorticoid activity than its parent"}]}]}
